Reference: patent US9993494B2, “Compositions and methods for treating fibrotic disease” (eFFECTOR Therapeutics, Inc., priority 2014, dated 2018)

System: normal human lung fibroblasts
Experiment: Ribosomal profiling: translational efficiency in TGFβ-treated fibroblasts
Assay type: cell-based
Conditions: TGFβ-treated fibroblasts
Outline: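 Cells lysed on ice after a cold PBS wash containing cycloheximide. Ribosome-protected fragments and total mRNA were prepared with the ARTseq kit and sequenced by RNA-Seq. Reads were trimmed, mapped to the human genome and counted uniquely over coding regions per gene, with low-count genes excluded before differential translational-efficiency analysis.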

Compound: CC(C=CC(=O)NO)=CC(C)C(=O)c1ccc(N(C)C)cc1 (stereo not drawn) [TSA, 7-[4-(dimethylamino)phenyl]-N-hydroxy-4,6-dimethyl-7-oxohepta-2,4-dienamide]
- effect in renormalizing the translational profile of the gene (gene RPS6 (ENSG00000137154)): − (− = <0.9)
- effect in renormalizing the translational profile of the gene (gene RPS6KA5 (ENSG00000100784)): − (− = <0.9)
- effect in renormalizing the translational profile of the gene (gene RPS7 (ENSG00000171863)): − (− = <0.9)
- effect in renormalizing the translational profile of the gene (gene RPS8 (ENSG00000142937)): − (− = <0.9)
- effect in renormalizing the translational profile of the gene (gene RPS9 (ENSG00000170889)): − (− = <0.9)
- effect in renormalizing the translational profile of the gene (gene RPS10 (ENSG00000124614)): − (− = <0.9)
- effect in renormalizing the translational profile of the gene (gene RPS11 (ENSG00000142534)): − (− = <0.9)
- effect in renormalizing the translational profile of the gene (gene RPS12 (ENSG00000112306)): − (− = <0.9)
- effect in renormalizing the translational profile of the gene (gene RPS13 (ENSG00000110700)): − (− = <0.9)
- effect in renormalizing the translational profile of the gene (gene RPS14 (ENSG00000164587)): − (− = <0.9)
- effect in renormalizing the translational profile of the gene (gene RPS15 (ENSG00000115268)): − (− = <0.9)
- effect in renormalizing the translational profile of the gene (gene RPS15A (ENSG00000134419)): − (− = <0.9)
- effect in renormalizing the translational profile of the gene (gene RPS16 (ENSG00000105193)): − (− = <0.9)
- effect in renormalizing the translational profile of the gene (gene RPS18 (ENSG00000231500)): − (− = <0.9)
- effect in renormalizing the translational profile of the gene (gene RPS19 (ENSG00000105372)): − (− = <0.9)
- effect in renormalizing the translational profile of the gene (gene RPS20 (ENSG00000008988)): − (− = <0.9)
- effect in renormalizing the translational profile of the gene (gene RPS21 (ENSG00000171858)): − (− = <0.9)
- effect in renormalizing the translational profile of the gene (gene RPS23 (ENSG00000186468)): − (− = <0.9)
- effect in renormalizing the translational profile of the gene (gene RPS24 (ENSG00000138326)): − (− = <0.9)
- effect in renormalizing the translational profile of the gene (gene RPS25 (ENSG00000118181)): − (− = <0.9)
- effect in renormalizing the translational profile of the gene (gene RPS26 (ENSG00000197728)): − (− = <0.9)
- effect in renormalizing the translational profile of the gene (gene RPS27 (ENSG00000177954)): − (− = <0.9)
- effect in renormalizing the translational profile of the gene (gene RPS27A (ENSG00000143947)): − (− = <0.9)
- effect in renormalizing the translational profile of the gene (gene RPS28 (ENSG00000233927)): − (− = <0.9)
- effect in renormalizing the translational profile of the gene (gene RPS29 (ENSG00000213741)): − (− = <0.9)
- effect in renormalizing the translational profile of the gene (gene RPSA (ENSG00000168028)): − (− = <0.9)
- effect in renormalizing the translational profile of the gene (gene RTN2 (ENSG00000125744)): − (− = <0.9)
- effect in renormalizing the translational profile of the gene (gene SEMA3A (ENSG00000075213)): − (− = <0.9)
- effect in renormalizing the translational profile of the gene (gene SGIP1 (ENSG00000118473)): − (− = <0.9)
- effect in renormalizing the translational profile of the gene (gene SH3BGR (ENSG00000185437)): − (− = <0.9)
- effect in renormalizing the translational profile of the gene (gene SHC3 (ENSG00000148082)): + (+ = 0.9 to 1.5)
- effect in renormalizing the translational profile of the gene (gene SLC2A12 (ENSG00000146411)): − (− = <0.9)
- effect in renormalizing the translational profile of the gene (gene SLC7A7 (ENSG00000155465)): − (− = <0.9)
- effect in renormalizing the translational profile of the gene (gene SLC15A3 (ENSG00000110446)): ++ (++ = 1.5 to 2.0)
- effect in renormalizing the translational profile of the gene (gene SLC25A6 (ENSG00000169100)): − (− = <0.9)
- effect in renormalizing the translational profile of the gene (gene SLC40A1 (ENSG00000138449)): + (+ = 0.9 to 1.5)
- effect in renormalizing the translational profile of the gene (gene SMO (ENSG00000128602)): − (− = <0.9)
- effect in renormalizing the translational profile of the gene (gene SNRPA (ENSG00000077312)): − (− = <0.9)
- effect in renormalizing the translational profile of the gene (gene SOX5 (ENSG00000134532)): + (+ = 0.9 to 1.5)
- effect in renormalizing the translational profile of the gene (gene SOX6 (ENSG00000110693)): − (− = <0.9)
- effect in renormalizing the translational profile of the gene (gene SPATA6 (ENSG00000132122)): − (− = <0.9)
- effect in renormalizing the translational profile of the gene (gene STAMBPL1 (ENSG00000138134)): + (+ = 0.9 to 1.5)
- effect in renormalizing the translational profile of the gene (gene STS (ENSG00000101846)): − (− = <0.9)
- effect in renormalizing the translational profile of the gene (gene SYNE2 (ENSG00000054654)): − (− = <0.9)
- effect in renormalizing the translational profile of the gene (gene TAF1D (ENSG00000166012)): + (+ = 0.9 to 1.5)
- effect in renormalizing the translational profile of the gene (gene TDG (ENSG00000139372)): − (− = <0.9)
- effect in renormalizing the translational profile of the gene (gene TEN1 (ENSG00000257949)): − (− = <0.9)
- effect in renormalizing the translational profile of the gene (gene TET2 (ENSG00000168769)): − (− = <0.9)
- effect in renormalizing the translational profile of the gene (gene TET3 (ENSG00000187605)): − (− = <0.9)
- effect in renormalizing the translational profile of the gene (gene TGFBI (ENSG00000120708)): − (− = <0.9)
- effect in renormalizing the translational profile of the gene (gene THBS3 (ENSG00000169231)): − (− = <0.9)
- effect in renormalizing the translational profile of the gene (gene THG1L (ENSG00000113272)): − (− = <0.9)
- effect in renormalizing the translational profile of the gene (gene TIMM9 (ENSG00000100575)): − (− = <0.9)
- effect in renormalizing the translational profile of the gene (gene TKT (ENSG00000163931)): − (− = <0.9)
- effect in renormalizing the translational profile of the gene (gene TMTC1 (ENSG00000133687)): + (+ = 0.9 to 1.5)
- effect in renormalizing the translational profile of the gene (gene TOMM7 (ENSG00000196683)): − (− = <0.9)
- effect in renormalizing the translational profile of the gene (gene TOP2A (ENSG00000131747)): − (− = <0.9)
- effect in renormalizing the translational profile of the gene (gene TPGS1 (ENSG00000141933)): − (− = <0.9)
- effect in renormalizing the translational profile of the gene (gene TPM2 (ENSG00000198467)): − (− = <0.9)
- effect in renormalizing the translational profile of the gene (gene TPT1 (ENSG00000133112)): − (− = <0.9)
- effect in renormalizing the translational profile of the gene (gene TRERF1 (ENSG00000124496)): − (− = <0.9)
- effect in renormalizing the translational profile of the gene (gene UBA52 (ENSG00000221983)): − (− = <0.9)
- effect in renormalizing the translational profile of the gene (gene UQCRB (ENSG00000156467)): − (− = <0.9)
- effect in renormalizing the translational profile of the gene (gene UTRN (ENSG00000152818)): − (− = <0.9)
- effect in renormalizing the translational profile of the gene (gene VIM (ENSG00000026025)): − (− = <0.9)
- effect in renormalizing the translational profile of the gene (gene ZNF581 (ENSG00000171425)): − (− = <0.9)
